Active and inactive are the calls of the source. The calls are words filed in the database; no cut-off is given here.
Legend:
[1] = test system: A2780; test: Antiproliferative activity against human A2780 cells assessed as cell growth inhibition by MTT assay; assay type: functional, cell-based
[2] = test system: CNE-2; test: Antiproliferative activity against human CNE-2 cells assessed as cell growth inhibition by MTT assay; assay type: functional, cell-based
[3] = test system: T-24; test: Antiproliferative activity against human T24 cells assessed as cell growth inhibition by MTT assay; assay type: functional, cell-based
[4] = test system: MGC-803; test: Antiproliferative activity against human MGC-803 cells assessed as cell growth inhibition by MTT assay; assay type: functional, cell-based
[5] = species on record: Homo sapiens; test: Binding affinity to pBR322 DNA (unknown origin) assessed as DNA intercalation at 20 to 100 uM by electrophoresis assay; settings: dose 20-100 µM
[6] = species on record: Homo sapiens; test: Binding affinity to pBR322 DNA (unknown origin) assessed as induced retardation of DNA migration at 20 to 100 uM by gel electrophoresis assay; settings: dose 20-100 µM
[7] = target: T1, DNA topoisomerase 1 (Homo sapiens) (UniProt P11387); test: Inhibition of human DNA topoisomerase 1 assessed as reduction in pBR322 DNA relaxation upto 100 uM by gel electrophoresis method
T1 sequence (whole entry): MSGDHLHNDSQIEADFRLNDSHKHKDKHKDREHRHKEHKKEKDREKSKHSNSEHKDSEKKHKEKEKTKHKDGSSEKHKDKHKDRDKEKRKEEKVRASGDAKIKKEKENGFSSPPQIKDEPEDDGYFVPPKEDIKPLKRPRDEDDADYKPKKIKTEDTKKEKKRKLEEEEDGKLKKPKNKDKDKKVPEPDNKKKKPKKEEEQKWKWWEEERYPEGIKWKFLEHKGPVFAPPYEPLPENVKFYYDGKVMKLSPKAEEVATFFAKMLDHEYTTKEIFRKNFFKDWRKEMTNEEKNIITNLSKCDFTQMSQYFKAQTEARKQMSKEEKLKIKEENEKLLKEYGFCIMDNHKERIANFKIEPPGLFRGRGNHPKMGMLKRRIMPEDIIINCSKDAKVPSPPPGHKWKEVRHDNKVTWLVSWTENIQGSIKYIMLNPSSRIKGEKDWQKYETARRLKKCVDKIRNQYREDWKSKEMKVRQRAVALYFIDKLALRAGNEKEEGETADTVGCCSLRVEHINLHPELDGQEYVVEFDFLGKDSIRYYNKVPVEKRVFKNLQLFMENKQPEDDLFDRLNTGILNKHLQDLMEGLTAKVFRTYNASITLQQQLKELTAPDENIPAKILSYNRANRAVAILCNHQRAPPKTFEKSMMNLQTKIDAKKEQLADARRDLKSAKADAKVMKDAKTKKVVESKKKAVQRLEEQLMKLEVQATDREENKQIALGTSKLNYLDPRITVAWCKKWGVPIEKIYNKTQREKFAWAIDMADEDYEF

[8] = test system: MGC-803; test: Toxicity in nude mouse xenografted with human MGC-803 cells assessed as morphological changes in liver at 8 mg/kg, ip administrated every other day for 21 days; assay type: functional, organism-based; settings: time 21.0 day
[9] = test system: MGC-803; test: Antitumor activity against human MGC-803 cells xenografted in nude mouse assessed as reduction in tumor weight at 4 mg/kg, ip administrated every other day for 21 days relative to control; assay type: functional; parameters: scale not given: the % may be the effect or the level left; settings: time 21 day
[10] = test system: MGC-803; test: Antitumor activity against human MGC-803 cells xenografted in nude mouse assessed as reduction in tumor volume growth rate at 4 mg/kg, ip administrated every other day for 21 days relative to control; assay type: functional; parameters: scale not given: the % may be the effect or the level left; settings: time 21 day

Row | IC50 [1] [µM] | IC50 [4] [µM] | Activity [5] | Activity [6] | inhibition [7] | Compound | IC50 [2] [µM] | IC50 [3] [µM] | Activity [8] | Activity [9] [%] | Activity [10] [%]
1 | > 50 | > 50 | – | – | – | O=C1c2cccc3c(N4CCCCC4)c([N+](=O)[O-])cc(c23)C(=O)N1CCNCCN1C(=O)c2cccc3c(N4CCCCC4)c([N+](=O)[O-])cc(c23)C1=O | > 50 | > 50 | – | – | –
2 | > 50 | > 50 | – | – | – | CC(C)(C)OC(=O)N1CCN(c2c([N+](=O)[O-])cc3c4c(cccc24)C(=O)N(CCNCCN2C(=O)c4cccc5c(N6CCN(C(=O)OC(C)(C)C)CC6)c([N+](=O)[O-])cc(c45)C2=O)C3=O)CC1 | > 50 | > 50 | – | – | –
3 | > 50 | > 50 | – | – | – | O=C1c2cccc3c(N4CCC(N5CCCCC5)CC4)c([N+](=O)[O-])cc(c23)C(=O)N1CCNCCN1C(=O)c2cccc3c(N4CCC(N5CCCCC5)CC4)c([N+](=O)[O-])cc(c23)C1=O | 9.25 | 14.8 | – | – | –
4 | 0.42 | 2.05 | Active | Active | inactive | CN1CCN(c2c([N+](=O)[O-])cc3c4c(cccc24)C(=O)N(CCNCCN2C(=O)c4cccc5c(N6CCN(C)CC6)c([N+](=O)[O-])cc(c45)C2=O)C3=O)CC1 | 0.34 | 0.65 | – | – | –

Further lines, the compound ahead of its results:

Row | Compound | IC50 [1] [µM] | IC50 [4] [µM] | Activity [5] | Activity [6] | inhibition [7] | IC50 [2] [µM] | IC50 [3] [µM] | Activity [8] | Activity [9] [%] | Activity [10] [%]
5 | CN(C)CCN1C(=O)c2cccc3cc(N)cc(c23)C1=O [AMONAFIDE] | 11.7 | 5.25 | – | – | – | 8.65 | 7.23 | – | – | –
6 | O=C1c2cccc3cc([N+](=O)[O-])cc(c23)C(=O)N1CCNCCN1C(=O)c2cccc3cc([N+](=O)[O-])cc(c23)C1=O | 2.79 | 14.6 | inactive | inactive | inactive | 4.51 | 3.45 | – | – | –
7 | CN(C)CCN1C(=O)c2cccc3cc([N+](=O)[O-])cc(c23)C1=O [MITONAFIDE] | 5.22 | 3.32 | – | – | – | 3.42 | 3.25 | Toxic | 34.2 | 54.2
8 | O=C1c2cccc3c(N4CCOCC4)c([N+](=O)[O-])cc(c23)C(=O)N1CCc1ccc2c(c1)OCO2 | 28.4 | 23.1 | – | – | – | > 50 | 23.6 | – | – | –
9 | O=C1c2cccc3c(N4CCOCC4)c([N+](=O)[O-])cc(c23)C(=O)N1CCO | 22.8 | 11.8 | – | – | – | 16.4 | 9.34 | – | – | –

From ChEMBL document CHEMBL5252609, “Design, synthesis, and antitumor evaluation of morpholine substituted bisnaphthalimides as DNA targeting agents” (Bioorg Med Chem Lett, 2023)
